Reference: ChEMBL document CHEMBL1201862, “PubChem BioAssay data set” (2004)
Activity calls are given as the source filed them.

How the values were obtained:
[1] = target: T1, Corticotropin-releasing factor receptor 2/Corticotropin-releasing factor-binding protein (Homo sapiens, UniProt P24387+Q13324); experiment: activators of CRF receptor 2 with binding protein – uHTS hits, confirmation (AID 602473); assay type: functional; conditions: read-out: EC50_Mean
T1 sequence (Q13324 whole entry): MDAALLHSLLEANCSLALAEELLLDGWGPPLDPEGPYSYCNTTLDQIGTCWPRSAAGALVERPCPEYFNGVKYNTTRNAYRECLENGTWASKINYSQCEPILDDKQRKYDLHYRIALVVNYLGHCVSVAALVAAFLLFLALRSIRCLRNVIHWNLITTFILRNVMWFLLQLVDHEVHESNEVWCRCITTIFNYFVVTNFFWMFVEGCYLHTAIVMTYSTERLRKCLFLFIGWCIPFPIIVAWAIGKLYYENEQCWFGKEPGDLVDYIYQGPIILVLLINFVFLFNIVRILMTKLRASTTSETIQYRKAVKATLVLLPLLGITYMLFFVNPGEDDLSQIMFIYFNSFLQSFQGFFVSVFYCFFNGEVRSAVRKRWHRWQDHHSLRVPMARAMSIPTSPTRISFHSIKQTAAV
T1 sequence (P24387 whole entry): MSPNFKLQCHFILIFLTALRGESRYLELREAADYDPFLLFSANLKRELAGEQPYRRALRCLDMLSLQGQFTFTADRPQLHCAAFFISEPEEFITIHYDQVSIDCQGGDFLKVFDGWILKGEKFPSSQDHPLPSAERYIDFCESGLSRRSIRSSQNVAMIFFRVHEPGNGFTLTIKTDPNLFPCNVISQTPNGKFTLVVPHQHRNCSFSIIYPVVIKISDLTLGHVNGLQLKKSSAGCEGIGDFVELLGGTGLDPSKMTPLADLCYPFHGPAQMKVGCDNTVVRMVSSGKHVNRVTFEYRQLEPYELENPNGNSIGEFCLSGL

[2] = target: T1, Corticotropin-releasing factor receptor 2/Corticotropin-releasing factor-binding protein; experiment: Dose Response confirmation of uHTS hits for small molecule antagonists of the CRF-binding protein and CRF-R2 receptor complex.; assay type: functional; conditions: read-out: IC50_Mean
P388 = experiment: cells; assay type: functional; conditions: Mus musculus
P388/ADR = experiment: cells; assay type: functional; conditions: Mus musculus
SN12K1 = experiment: cells; assay type: functional; conditions: Homo sapiens
[3] = THP-1 cell cytotoxicity, dose response, cytotoxicity control for non-replicating M. tuberculosis project (AID 489025); assay type: functional
[4] = Vero E6 cell cytotoxicity, dose response, cytotoxicity control for non-replicating M. tuberculosis project, secondary assay (AID 492998); assay type: functional, VeroE6; conditions: Vero C1008
cells = assay type: functional
[5] = growth suppression of beta-catenin-knockout colon cells, dose response, cell-based, HCT116, human colon tumor (AID 1045); assay type: functional;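 also: HCT116 colon tumor cells with beta catenin knocked out; cells exposed to compound for 60 hours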
[6] = growth suppression of PTEN-null colon cells, dose response, cell-based, HCT116 PTEN knockout (AID 1047); assay type: functional;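 also: HCT116 colon tumor cells with PTEN knocked out; cells exposed to compound for 60 hours before readout; potency for loss of cell viability measured by luminescence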
Cytochrome P450 2C9 = Cytochrome P450 2C9 (Homo sapiens, UniProt P11712)
Cytochrome P450 2C9, sequence (P11712 whole entry): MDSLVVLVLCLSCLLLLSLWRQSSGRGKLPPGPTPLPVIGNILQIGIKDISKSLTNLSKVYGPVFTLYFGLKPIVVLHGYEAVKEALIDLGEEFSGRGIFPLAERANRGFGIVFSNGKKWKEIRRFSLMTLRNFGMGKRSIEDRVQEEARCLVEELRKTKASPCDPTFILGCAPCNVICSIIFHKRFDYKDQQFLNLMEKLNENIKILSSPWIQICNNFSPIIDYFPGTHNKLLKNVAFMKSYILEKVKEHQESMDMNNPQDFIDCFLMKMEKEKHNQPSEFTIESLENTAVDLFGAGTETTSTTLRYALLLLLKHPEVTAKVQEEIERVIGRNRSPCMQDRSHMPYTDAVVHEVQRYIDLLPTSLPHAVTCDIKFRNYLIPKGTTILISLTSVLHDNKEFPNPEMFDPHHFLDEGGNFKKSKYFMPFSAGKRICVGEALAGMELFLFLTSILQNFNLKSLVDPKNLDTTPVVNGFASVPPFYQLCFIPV

Row | Compound | EC50 [1] | IC50 [2] | GI50 (P388) | GI50 (P388/ADR) | GI50 (SN12K1) | other results
1 | CC(C)Cn1cc(C(=O)N2CCC(C)CC2)c2c3ccccc3n(C)c2c1=O | > 53 µM (inactive) | > 47.1 µM (inactive) |  |  |  | 
2 | Nc1ncnc2c(C3OC(CO)C(O)C3O)n[nH]c12 (configuration not stated) |  |  | 10.2 µM (inactive) | 5.6 µM (inactive) | 0.176 µM (active) | 
3 | C[C@H](NC(=O)c1[nH]cnc1C(=O)Nc1ccccc1)C(=O)OC(C)(C)C |  |  |  |  |  | CC50 [3]: > 40 µM (active); CC50 [4]: > 20 µM (active); IC50 (cells): 8.07 µM (active)
4 | CN(C)CCCNC(=O)C[C@H]1C[C@H](C(=O)N2CCOCC2)[C@@]2(C)c3[nH]c4ccc(Cl)cc4c3CCN2C1=O | > 53 µM (inactive) | > 47.1 µM (inactive) |  |  |  | 
5 | O=C1NC2(CCCCC2)C(=O)N1CCN(CCCl)CCCl [SPIROMUSTINE] |  |  | 30.2 µM (inactive) | 29.6 µM (inactive) | 132 µM (inactive) | 
6 | O=c1[nH]c2ccc(Cl)cc2[nH]1 | > 53 µM (inactive) | > 47.1 µM (inactive) |  |  |  | 
7 | COc1ccc(/C=C\c2cc(OC)c(OC)c(OC)c2)c(O)c1O [COMBRETASTATIN A-1] |  |  | 0.0525 µM (active) | 0.139 µM (active) | 0.05 µM (active) | 
8 | CCc1ccc(NC(=O)CSc2nc3cc(C(=O)OC)ccc3c(=O)n2CC2CCCO2)cc1 (configuration not stated) |  |  |  |  |  | EC50 [5]: 25.2 µM (active); EC50 [6]: 27.4 µM (active)
9 | COc1cccc2c1C(=O)c1c(O)c3c(c(O)c1C2=O)C[C@](O)(C(=O)CO)CC3OC1CC(N)C(OC2CCCCO2)C(C)O1 (some centres not stated) |  |  | < 0.01 µM (active) | 3.14 µM (inactive) | < 0.01 µM (active) | 
10 | Cc1ncsc1C(=O)N1CCCC(C(=O)c2ccc3ccccc3c2)C1 (configuration not stated) | > 53 µM (inactive) | > 47.1 µM (inactive) |  |  |  | 
11 | CC(Sc1nc(-c2ccccc2)cc(C(F)(F)F)n1)C(=O)Nc1ccc2c(c1)OCO2 (configuration not stated) |  |  |  |  |  | EC50 [5]: 24.6 µM (active); EC50 [6]: 19.3 µM (active)
12 | NC(=O)NO [HYDROXYUREA] |  |  | 69.8 µM (inactive) | 59.3 µM (inactive) | 173 µM (inactive) | 
13 | O=C(O)Cc1cccc2c(=O)cc(-c3ccccc3)oc12 [MITOFLAXONE] |  |  | 93.8 µM (inactive) | > 79.3 µM (inactive) | > 250 µM (inactive) | 
14 | Cc1noc(C)c1-c1cc(NCc2cccnc2)ncn1 |  |  |  |  |  | AC50 (Cytochrome P450 2C9): inconclusive
15 | O=C1COc2ccccc2CN1 |  |  |  |  |  | AC50 (Cytochrome P450 2C9): inconclusive
16 | Cc1cccc(C)c1NC(=O)Cc1cccs1 | > 53 µM (inactive) | > 47.1 µM (inactive) |  |  |  | 
